Converted amounts (≈) assume the structure as drawn. The source made the active and inactive calls. The calls are words filed in the database; no cut-off is given here. Where a SMILES comes first, the peptide text is derived from it. [ ]: non-standard residue; d: D form. The star is where a group is joined. ξ: configuration not given here. Palmitoyl = CCCCCCCCCCCCCCCC(=O)*; Myristoyl = CCCCCCCCCCCCCC(=O)*; Lauroyl = CCCCCCCCCCCC(=O)*; Decanoyl = CCCCCCCCCC(=O)*; ξDab = NCCC(N)C(=O)O; ξDap = NCC(N)C(=O)O
Tests used:
[1] = system: Lipid bilayer; test: Binding affinity to DPPG large unilamellar vesicles at 298 kelvin by ITC method
[2] = system: Lipid bilayer; test: Binding affinity to DPPG large unilamellar vesicles at 323 kelvin by ITC method
[3] = system: Lipid bilayer; test: Binding affinity to POPC large unilamellar vesicle at 0.2 mM by ITC method
[4] = system: Staphylococcus aureus; test: Antibacterial activity against Staphylococcus aureus ATCC 25923 assessed as growth inhibition measured after 18 hrs by CLSI based method; type: functional; details: ATCC 25923, 18 h
[5] = system: Staphylococcus epidermidis; test: Antibacterial activity against Staphylococcus epidermidis PCM 2118 assessed as growth inhibition measured after 18 hrs by CLSI based method; type: functional; details: PCM 2118, 18 h
[6] = system: Escherichia coli; test: Antibacterial activity against Escherichia coli ATCC 25922 assessed as growth inhibition measured after 18 hrs by CLSI based method; type: functional; details: ATCC 25922, 18 h
[7] = system: Pseudomonas aeruginosa; test: Antibacterial activity against Pseudomonas aeruginosa ATCC 9027 assessed as growth inhibition measured after 18 hrs by CLSI based method; type: functional; details: ATCC 9027, 18 h
[8] = system: Candida albicans; test: Antifungal activity against Candida albicans ATCC 10231 assessed as growth inhibition measured after 48 hrs by CLSI based method; type: functional; details: ATCC 10231, 48 h
[9] = system: HaCaT; test: Cytotoxicity against human HaCaT cells assessed as growth inhibition measured after 24 hrs by MTT assay; type: cell-based
[10] = Hemolytic activity in human RBC induction of hemolysis at 128 ug/ml at MIC after 60 mins by spectrophotometric method relative to control; type: cell-based, Erythrocyte; details: human red blood cells (erythrocytes), read-out: Activity
[11] = Critical micelle concentration of compound by ITC method; type: physicochemical
[12] = Critical micelle concentration of compound; type: physicochemical
[13] = Surfactant-like property of compound at CMC; type: physicochemical
[14] = system: Lipid bilayer; test: Binding affinity to POPG large unilamellar vesicle at 298 kelvin by ITC method
[15] = Binding affinity to DPPG lipid assessed as change in melting temperature at 10:1 molar ratio of lipid:lipopeptide by FTIR analysis

Row | Compound | pK [1] | pK [2] | Activity [3] | MIC [4] [µg/mL] | MIC [5] [µg/mL] | MIC [6] [µg/mL] | MIC [7] [µg/mL] | MIC [8] [µg/mL] | IC50 [9] [µg/mL] | hemolysis at 1 h, 128 ug/ml [10] [%] | CMC [11] [mM] | CMC [12] [mM] | gammaCMC [13] [mN/meter] | pK [14] | ΔTm [15] [°C]
1 | CCCCCCCCCCCCCCCC(=O)NCC(NC(=O)CCCCCCCCCCCCCCC)C(=O)O (configuration not stated) | 4.26 to 6.99 | inactive | inactive | – | – | – | – | – | – | – | – | – | – | – | –
2 | CCCCCCCCCCCCCCCC(=O)NCCCC[C@H](NC(=O)CCCCCCCCCCCCCCC)C(=O)N[C@@H](CCCCN)C(=O)N[C@@H](CCCCN)C(=O)N[C@@H](CCCCN)C(N)=O (Palmitoyl-K(Palmitoyl)KKK-NH2) | – | – | inactive | > 512 | > 512 | > 512 | > 512 | > 512 | – | – | – | – | – | – | –
3 | CCCCCCCCCCCC(=O)NCCC(NC(=O)CCCCCCCCCCC)C(=O)N[C@@H](CCCCN)C(=O)N[C@@H](CCCCN)C(=O)N[C@@H](CCCCN)C(N)=O (some centres not stated) (Lauroyl-[ξDab](Lauroyl)KKK-NH2) | – | – | inactive | 64 (≈ 73.9 µM) | 8 (≈ 9.23 µM) | 64 (≈ 73.9 µM) | 64 (≈ 73.9 µM) | 16 (≈ 18.5 µM) | 30.7 (≈ 35.4 µM) | 13 | 1.34 | 1.25 | 40 | – | –
4 | CCCCCCCCCCCC(=O)NCC(NC(=O)CCCCCCCCCCC)C(=O)O (configuration not stated) | 7.18 | 5.37 | inactive | – | – | – | – | – | – | – | – | – | – | 6.34 | –
5 | CCCCCCCCCCCCCCCC(=O)NCCC(NC(=O)CCCCCCCCCCCCCCC)C(=O)N[C@@H](CCCCN)C(=O)N[C@@H](CCCCN)C(=O)N[C@@H](CCCCN)C(N)=O (some centres not stated) (Palmitoyl-[ξDab](Palmitoyl)KKK-NH2) | – | – | inactive | > 512 | 256 (≈ 262 µM) | > 512 | > 512 | > 512 | – | – | 0.06 to 0.22 | 0.32 | 41.5 | – | –
6 | CCCCCCCCCCCCCC(=O)NCCCC[C@H](NC(=O)CCCCCCCCCCCCC)C(=O)N[C@@H](CCCCN)C(=O)N[C@@H](CCCCN)C(=O)N[C@@H](CCCCN)C(N)=O (Myristoyl-K(Myristoyl)KKK-NH2) | – | – | inactive | > 512 | 256 (≈ 269 µM) | > 512 | 512 (≈ 539 µM) | 512 (≈ 539 µM) | – | – | – | – | – | – | –
7 | CCCCCCCCCC(=O)NCC(NC(=O)CCCCCCCCC)C(=O)N[C@@H](CCCCN)C(=O)N[C@@H](CCCCN)C(=O)N[C@@H](CCCCN)C(N)=O (some centres not stated) (Decanoyl-[ξDap](Decanoyl)KKK-NH2) | – | – | inactive | 2 (≈ 2.51 µM) | 4 (≈ 5.02 µM) | 8 (≈ 10 µM) | 4 (≈ 5.02 µM) | 16 (≈ 20.1 µM) | 75 (≈ 94.2 µM) | – | – | 3.24 | 42.5 | – | 2.5 to 3
8 | CCCCCCCCCCCC(=O)NCCCC[C@H](NC(=O)CCCCCCCCCCC)C(=O)N[C@@H](CCCCN)C(=O)N[C@@H](CCCCN)C(=O)N[C@@H](CCCCN)C(N)=O (Lauroyl-K(Lauroyl)KKK-NH2) | – | – | inactive | 64 (≈ 71.6 µM) | 16 (≈ 17.9 µM) | 128 (≈ 143 µM) | 256 (≈ 286 µM) | 8 (≈ 8.95 µM) | 31.1 (≈ 34.8 µM) | – | – | – | – | – | –
9 | CCCCCCCCCCCC(=O)NCCC(NC(=O)CCCCCCCCCCC)C(=O)O (configuration not stated) | 5.14 to 7.38 | 4.52 | inactive | – | – | – | – | – | – | – | – | – | – | 4.1 | –
10 | CCCCCCCCCC(=O)NCCCC[C@H](NC(=O)CCCCCCCCC)C(=O)N[C@@H](CCCCN)C(=O)N[C@@H](CCCCN)C(=O)N[C@@H](CCCCN)C(N)=O (Decanoyl-K(Decanoyl)KKK-NH2) | – | – | inactive | 64 (≈ 76.4 µM) | 2 (≈ 2.39 µM) | 16 (≈ 19.1 µM) | 8 (≈ 9.54 µM) | 8 (≈ 9.54 µM) | 18.8 (≈ 22.4 µM) | – | – | – | – | – | –
11 | CCCCCCCCCC(=O)NCCC(NC(=O)CCCCCCCCC)C(=O)O (configuration not stated) | 5.76 to 7.37 | 5.06 | inactive | – | – | – | – | – | – | – | – | – | – | – | –
12 | CCCCCCCCCCCCCC(=O)NCCC(NC(=O)CCCCCCCCCCCCC)C(=O)N[C@@H](CCCCN)C(=O)N[C@@H](CCCCN)C(=O)N[C@@H](CCCCN)C(N)=O (some centres not stated) (Myristoyl-[ξDab](Myristoyl)KKK-NH2) | – | – | inactive | > 512 | > 512 | > 512 | > 512 | > 512 | – | – | 0.28 to 0.53 | 0.45 | 46.9 | – | –
13 | CCCCCCCCCCCCCCCC(=O)NCC(NC(=O)CCCCCCCCCCCCCCC)C(=O)N[C@@H](CCCCN)C(=O)N[C@@H](CCCCN)C(=O)N[C@@H](CCCCN)C(N)=O (some centres not stated) (Palmitoyl-[ξDap](Palmitoyl)KKK-NH2) | – | – | inactive | > 512 | 512 (≈ 531 µM) | > 512 | > 512 | > 512 | – | – | 0.35 to 0.7 | 0.32 | 45.9 | – | –
14 | CCCCCCCCCC(=O)NCCC(NC(=O)CCCCCCCCC)C(=O)N[C@@H](CCCCN)C(=O)N[C@@H](CCCCN)C(=O)N[C@@H](CCCCN)C(N)=O (some centres not stated) (Decanoyl-[ξDab](Decanoyl)KKK-NH2) | – | – | inactive | 8 (≈ 9.87 µM) | 4 (≈ 4.94 µM) | 16 (≈ 19.7 µM) | 8 (≈ 9.87 µM) | 16 (≈ 19.7 µM) | 1.16 (≈ 1.43 µM) | – | – | 3.16 | 41.5 | – | 2.5 to 3
15 | CCCCCCCCCCCC(=O)NCC(NC(=O)CCCCCCCCCCC)C(=O)N[C@@H](CCCCN)C(=O)N[C@@H](CCCCN)C(=O)N[C@@H](CCCCN)C(N)=O (some centres not stated) (Lauroyl-[ξDap](Lauroyl)KKK-NH2) | – | – | inactive | 32 (≈ 37.5 µM) | 8 (≈ 9.39 µM) | 256 (≈ 300 µM) | 128 (≈ 150 µM) | 8 (≈ 9.39 µM) | 43.3 (≈ 50.8 µM) | 50 | 1.53 | 1.41 | 41.3 | – | –
16 | CCCCCCCCCC(=O)NCC(NC(=O)CCCCCCCCC)C(=O)O (configuration not stated) | 6.59 to 7.4 | 4.5 | inactive | – | – | – | – | – | – | – | – | – | – | 6.83 to 50.7 | –
17 | CCCCCCCCCCCCCC(=O)NCC(NC(=O)CCCCCCCCCCCCC)C(=O)N[C@@H](CCCCN)C(=O)N[C@@H](CCCCN)C(=O)N[C@@H](CCCCN)C(N)=O (some centres not stated) (Myristoyl-[ξDap](Myristoyl)KKK-NH2) | – | – | inactive | > 512 | 128 (≈ 141 µM) | > 512 | > 512 | > 512 | – | – | 0.35 | 0.35 | 46.1 | – | –
